How the values were obtained:
[1] = parameters: species or system mice; conditions: CD-1, mouse, in vivo, 2 years
[2] = Oral embryofetal development study; format: in vivo, rats
Description: Systemic embryofetal development studies were conducted in rats and rabbits.

[3] = Repeat dose dermal toxicity studies; format: in vivo, rats
Description: A dose-related decrease in body weight of male rats was also observed. No systemic toxicity was found at doses up to 5 mg/kg three days per week for 4 weeks or at doses up to 2.5 mg/kg three days per week for 16 weeks.

[4] = 52-week dermal photoco-carcinogenicity study; format: in vivo, hairless mice; conditions: 3×/week, 40 weeks, concurrent UV radiation
Source text: In a 52-week dermal photoco-carcinogenicity study, the median time to onset of skin tumor formation was decreased in hairless mice following chronic topical dosing (3×/week; 40 weeks of treatment followed by 12 weeks of observation) with concurrent exposure to UV radiation (5 days per week) with vehicle alone.
Vehicle cream enhanced UVR-induced skin tumour development.

[5] = Topical pharmacokinetics, 5 mg/kg three times per week for 4 weeks; conditions: rat, in vivo
[6] = Oral (gavage) carcinogenicity study, 24 months
[7] = Acute single dose toxicity (oral, intraperitoneal, subcutaneous, intravenous); format: in vivo
[8] = Physicochemical properties of the drug substance (solubility, pKa)
Description: Physicochemical Properties: • Physical Form: Crystalline solid that varies in colour from white to off-white or buff. […] It can be made soluble to the extent of at least 100 mg/mL in methanol (as a salt) upon the addition of a few drops of hydrochloric or acetic acid.

[9] = Description: A combined fertility and peri- and post-natal development study was conducted in rats.
[10] = Repeat dose oral toxicity, 6 months; format: in vivo, monkeys; conditions: dosed daily for 6 months
Description: The adverse effects observed for the high doses (10-30 mg/kg) in repeat dose oral toxicity studies in rats and monkeys could be related to exaggerated pharmacological effects of excessive cytokines induction and lymphoid stimulation: reduced body weight gains, anaemia, serum protein changes and death. […] An oral no-adverse-effect level of 3 mg/kg/day was determined in both rats and monkeys dosed daily for 6 months.

[11] = Stability of calibration standards in spent receiver fluid; format: physicochemical; conditions: vs T = 0

CC(C)Cn1cnc2c(N)nc3ccccc3c21 [imiquimod, 1-(2-methylpropyl)-1H-imidazo[4,5-c]quinolin-4-amine]
Carcinogenic effect, female mice ([1]; female): no evidence of a carcinogenic effect | Liver tumours, male mice at the highest dose vs unexposed controls ([1]; male): Liver tumours were increased | Exposure multiple at dose with fetal effects ([2]; female, rat, in vivo): 427 ×MRHD based on AUC comparisons | Exposure multiple at no-effect dose ([2]; female, rat, in vivo): 83 ×MRBD based on AUC comparisons | Teratogenicity ([2]; female, rat, in vivo): not teratogenic | High maternally toxic dose with reduced pup weights and delayed ossification ([2]; female, rat, in vivo, 20 mg/kg/day): 28 times human dose on a mg/m^2 basis | Dose at which fetal effects were noted (in the presence of maternal toxicity) ([2]; oral, gestational days 6-15): 20 mg/kg/day | Dose with no treatment related effects on embryofetal toxicity or teratogenicity ([2]; oral, gestational days 6-15): 5 mg/kg/day | Dose up to which no systemic toxicity was found ([3]; three days per week for 4 weeks): 5 mg/kg | Dose up to which no systemic toxicity was found ([3]; three days per week for 16 weeks): 2.5 mg/kg | Effect on tumor development beyond the vehicle effect [4]: No additional effect on tumor development beyond the vehicle effect | Imiquimod in serum [5]: not quantifiable | Exposure multiple, male and female rats ([6]; 3 mg/kg 7×/week): 29 ×MRHD | Exposure multiple, male rats ([6]; 4 mg/kg 2×/week): 45 ×MRHD | Exposure multiple, female rats ([6]; 6 mg/kg 2×/week): 57 ×MRHD based on AUC comparisons | Highest dose tested without treatment related tumors, female rats ([6]; 2×/week, 24 months): 6 mg/kg | Highest dose tested without treatment related tumors, male rats ([6]; 2×/week, 24 months): 4 mg/kg | Highest dose tested without treatment related tumors, male and female rats ([6]; 7×/week, 24 months): 3 mg/kg | Carcinogenic effect, male and female rats ([6]; two-year bioassay, up to 3 mg/kg orally per day): no evidence of a carcinogenic effect | LD50 ([7]; Monkey, intravenous bolus): >6 mg/kg | LD50 ([7]; Monkey, intravenous infusion): ≈8 mg/kg | LD50 ([7]; Monkey, oral): >200 mg/kg | LD50 ([7]; Rat, subcutaneous): ≈20 mg/kg | Single dose toxicity signs ([7]; oral, intraperitoneal, subcutaneous or intravenous, lethal doses): central nervous system (CNS) stimulation and convulsions | Solubility in fatty acids such as oleic acid and isostearic acid [8]: Soluble | pKa ([8]; UV spectroscopy and pH-solubility): ~7.5 | Solubility in most common organic solvents and in aqueous systems ([8]; except at extremely low pH): Practically insoluble | solubility ([8]; methanol, upon addition of a few drops of hydrochloric or acetic acid, read-out: Solubility in methanol (as a salt)): ≥ 100 mg/mL | Exposure multiple at dose without teratogenicity ([9]; 3 mg/kg/day): 27 ×MRHD based on AUC comparisons | Dose up to which no impairment of reproduction was demonstrated ([9]; daily oral, throughout mating, gestation, parturition and lactation): 8 times recommended human dose on a mg/m^2 basis | Dose at which bent limb bones were noted in the F1 fetuses ([9]; in the absence of maternal toxicity): 6 mg/kg/day | Dose with no treatment related effects on teratogenicity ([9]; oral): 3 mg/kg/day | Oral no-adverse-effect level [10]: 3 mg/kg/day | 48 h % recovered in Spent receiver fluid ([11]; Standard 5.275 μg/ml, Epidermal sheet + placebo, 37° C.): 86.828% | 48 h % recovered in Spent receiver fluid ([11]; Standard 5.275 μg/ml, Epidermal sheet + placebo, Fridge): 88.881% | 48 h % recovered in Spent receiver fluid ([11]; Standard 5.275 μg/ml, Epidermal sheet + placebo, RT): 86.540% | 48 h % recovered in Spent receiver fluid ([11]; Standard 5.275 μg/ml, Epidermal sheet, 37° C.): 85.995% | 48 h % recovered in Spent receiver fluid ([11]; Standard 5.275 μg/ml, Epidermal sheet, Fridge): 88.938% | 48 h % recovered in Spent receiver fluid ([11]; Standard 5.275 μg/ml, Epidermal sheet, RT): 91.447% | 48 h % recovered in Spent receiver fluid ([11]; Standard 5.275 μg/ml, Full thickness + placebo, 37° C.): 86.134% | 48 h % recovered in Spent receiver fluid ([11]; Standard 5.275 μg/ml, Full thickness + placebo, Fridge): 90.260% | 48 h % recovered in Spent receiver fluid ([11]; Standard 5.275 μg/ml, Full thickness + placebo, RT): 87.973% | 48 h % recovered in Spent receiver fluid ([11]; Standard 5.275 μg/ml, Full thickness, 37° C.): 90.611% | 48 h % recovered in Spent receiver fluid ([11]; Standard 5.275 μg/ml, Full thickness, Fridge): 94.586% | 48 h % recovered in Spent receiver fluid ([11]; Standard 5.275 μg/ml, Full thickness, RT): 95.232% | 48 h % recovered in Spent receiver fluid ([11]; Standard 42.2 μg/ml, Epidermal sheet + placebo, 37° C.): 95.095% | 48 h % recovered in Spent receiver fluid ([11]; Standard 42.2 μg/ml, Epidermal sheet + placebo, Fridge): 93.077% | 48 h % recovered in Spent receiver fluid ([11]; Standard 42.2 μg/ml, Epidermal sheet + placebo, RT): 92.904% | 48 h % recovered in Spent receiver fluid ([11]; Standard 42.2 μg/ml, Epidermal sheet, 37° C.): 89.641% | 48 h % recovered in Spent receiver fluid ([11]; Standard 42.2 μg/ml, Epidermal sheet, Fridge): 85.716% | 48 h % recovered in Spent receiver fluid ([11]; Standard 42.2 μg/ml, Epidermal sheet, RT): 86.340% | 48 h % recovered in Spent receiver fluid ([11]; Standard 42.2 μg/ml, Full thickness + placebo, 37° C.): 86.439% | 48 h % recovered in Spent receiver fluid ([11]; Standard 42.2 μg/ml, Full thickness + placebo, Fridge): 83.976% | 48 h % recovered in Spent receiver fluid ([11]; Standard 42.2 μg/ml, Full thickness + placebo, RT): 84.144% | 48 h % recovered in Spent receiver fluid ([11]; Standard 42.2 μg/ml, Full thickness, 37° C.): 95.939% | 48 h % recovered in Spent receiver fluid ([11]; Standard 42.2 μg/ml, Full thickness, Fridge): 95.103% | 48 h % recovered in Spent receiver fluid ([11]; Standard 42.2 μg/ml, Full thickness, RT): 95.805%

Reference: patent US8222270B2 (Medicis Pharmaceutical Corporation, priority 2008, dated 2012)
